Measurements as given in ChEMBL document CHEMBL3885881, “DrugMatrix”.

Species: Rattus norvegicus
Assay: DrugMatrix - Regimen: Daily Repeat
Assay type: toxicity, organism-based, Sprague-Dawley
Design: regimen Daily Repeat, gender Male, age 6-8 weeks
Conditions: in vivo, 0 mg/kg, dose level Control
[1] = po, 72 h, tissue Blood, route oral GAVAGE, time 3 day, vehicle 100 % WATER
[2] = po, 72 h, tissue Plasma, route oral GAVAGE, time 3 day, vehicle 100 % WATER
[3] = po, 120 h, tissue Blood, route oral GAVAGE, time 5 day, vehicle 100 % WATER
[4] = po, 120 h, tissue Plasma, route oral GAVAGE, time 5 day, vehicle 100 % WATER
[5] = iv, 72 h, tissue Blood, time 3 day, vehicle 100 % SALINE
[6] = iv, 72 h, tissue Plasma, time 3 day, vehicle 100 % SALINE
[7] = iv, 120 h, tissue Blood, time 5 day, vehicle 100 % SALINE
[8] = iv, 120 h, tissue Plasma, time 5 day, vehicle 100 % SALINE

CADMIUM ACETATE
ABSOLUTE BASOPHIL [1]: 0 CELLS/uL | ABSOLUTE EOSINOPHIL [1]: 0 CELLS/uL | ABSOLUTE LYMPHOCYTE [1]: 10386.33 CELLS/uL | ABSOLUTE MONOCYTE [1]: 88.5 CELLS/uL | ABSOLUTE SEGMENTED NEUTROPHIL [1]: 1008.5 CELLS/uL | BASOPHIL [1]: 0% | EOSINOPHIL [1]: 0% | ERYTHROCYTE COUNT [1]: 5.16 x10E6/uL | HEMATOCRIT [1]: 32.43% | HEMOGLOBIN [1]: 12.98 G/DL | LEUKOCYTE COUNT [1]: 11.48 x10E3/uL | LYMPHOCYTE [1]: 92.33% | MEAN CORPUSCULAR HEMOGLOBIN [1]: 25.23 pg | MEAN CORPUSCULAR HEMOGLOBIN CONCENTRATION [1]: 40.08 G/DL | MEAN CORPUSCULAR VOLUME [1]: 62.95 fL | MONOCYTE [1]: 0.67% | NEUTROPHIL [1]: 7% | NUCLEATED RED BLOOD CELLS [1]: 0 /100WBC | PLATELET COUNT [1]: 1016.67 x10E3/uL | ALANINE AMINOTRANSFERASE [2]: 62.17 u/L | ALBUMIN [2]: 3.95 G/DL | ALKALINE PHOSPHATASE [2]: 363.5 u/L | ASPARTATE AMINOTRANSFERASE [2]: 118 u/L | BLOOD UREA NITROGEN [2]: 14.5 mg/dL | CARBON DIOXIDE [2]: 22.83 mmol/L | CHOLESTEROL [2]: 66 mg/dL | CREATINE PHOSPHOKINASE [2]: 1308.83 u/L | CREATININE [2]: 0.22 mg/dL | GLUCOSE [2]: 187.5 mg/dL | LACTATE DEHYDROGENASE [2]: 380.17 u/L | LIPASE [2]: 16.17 u/L | PHOSPHORUS [2]: 14.27 mg/dL | POTASSIUM [2]: 6.8 MEQ/L | TOTAL BILIRUBIN [2]: 0.2 mg/dL | TOTAL PROTEIN [2]: 5.68 G/DL | URIC ACID [2]: 2.87 mg/dL | ABSOLUTE BASOPHIL [3]: 0 CELLS/uL | ABSOLUTE EOSINOPHIL [3]: 80 CELLS/uL | ABSOLUTE LYMPHOCYTE [3]: 13301.33 CELLS/uL | ABSOLUTE MONOCYTE [3]: 180.83 CELLS/uL | ABSOLUTE SEGMENTED NEUTROPHIL [3]: 1187.83 CELLS/uL | BASOPHIL [3]: 0% | EOSINOPHIL [3]: 0.5% | ERYTHROCYTE COUNT [3]: 5.54 x10E6/uL | HEMATOCRIT [3]: 35.65% | HEMOGLOBIN [3]: 14.22 G/DL | LEUKOCYTE COUNT [3]: 14.75 x10E3/uL | LYMPHOCYTE [3]: 90.67% | MEAN CORPUSCULAR HEMOGLOBIN [3]: 25.65 pg | MEAN CORPUSCULAR HEMOGLOBIN CONCENTRATION [3]: 39.88 G/DL | MONOCYTE [3]: 1% | NEUTROPHIL [3]: 7.83% | NUCLEATED RED BLOOD CELLS [3]: 0.17 /100WBC | PLATELET COUNT [3]: 1285.33 x10E3/uL | ALANINE AMINOTRANSFERASE [4]: 51.67 u/L | ALKALINE PHOSPHATASE [4]: 391.5 u/L | ASPARTATE AMINOTRANSFERASE [4]: 99.5 u/L | BLOOD UREA NITROGEN [4]: 15.5 mg/dL | CARBON DIOXIDE [4]: 28.33 mmol/L | CHOLESTEROL [4]: 67.83 mg/dL | CREATINE PHOSPHOKINASE [4]: 771.33 u/L | CREATININE [4]: 0.23 mg/dL | GLUCOSE [4]: 156.5 mg/dL | LACTATE DEHYDROGENASE [4]: 544.33 u/L | LIPASE [4]: 10.17 u/L | PHOSPHORUS [4]: 12.03 mg/dL | POTASSIUM [4]: 6.81 MEQ/L | TOTAL BILIRUBIN [4]: 0.22 mg/dL | TOTAL PROTEIN [4]: 6 G/DL | URIC ACID [4]: 2.18 mg/dL

LIPOPOLYSACCHARIDE E. COLI O55:B5
ABSOLUTE BASOPHIL [5]: 0 CELLS/uL | ABSOLUTE EOSINOPHIL [5]: 33.67 CELLS/uL | ABSOLUTE LYMPHOCYTE [5]: 12123.5 CELLS/uL | ABSOLUTE MONOCYTE [5]: 243.5 CELLS/uL | ABSOLUTE SEGMENTED NEUTROPHIL [5]: 1282.67 CELLS/uL | BASOPHIL [5]: 0% | EOSINOPHIL [5]: 0.33% | ERYTHROCYTE COUNT [5]: 5.18 x10E6/uL | HEMATOCRIT [5]: 32.63% | LEUKOCYTE COUNT [5]: 13.68 x10E3/uL | LYMPHOCYTE [5]: 88.67% | MEAN CORPUSCULAR HEMOGLOBIN [5]: 24.98 pg | NEUTROPHIL [5]: 9.17% | NUCLEATED RED BLOOD CELLS [5]: 0.17 /100WBC | PLATELET COUNT [5]: 1114.5 x10E3/uL | ALANINE AMINOTRANSFERASE [6]: 46.17 u/L | ALKALINE PHOSPHATASE [6]: 374.67 u/L | ASPARTATE AMINOTRANSFERASE [6]: 89.33 u/L | BLOOD UREA NITROGEN [6]: 14.83 mg/dL | CARBON DIOXIDE [6]: 25.67 mmol/L | CHOLESTEROL [6]: 63.5 mg/dL | CREATINE PHOSPHOKINASE [6]: 494.67 u/L | CREATININE [6]: 0.17 mg/dL | LACTATE DEHYDROGENASE [6]: 269.33 u/L | PHOSPHORUS [6]: 11.27 mg/dL | POTASSIUM [6]: 5.85 MEQ/L | TOTAL BILIRUBIN [6]: 0.18 mg/dL | TOTAL PROTEIN [6]: 5.87 G/DL | URIC ACID [6]: 1.28 mg/dL | ABSOLUTE BASOPHIL [7]: 0 CELLS/uL | ABSOLUTE EOSINOPHIL [7]: 24.67 CELLS/uL | ABSOLUTE LYMPHOCYTE [7]: 11832.83 CELLS/uL | ABSOLUTE MONOCYTE [7]: 279.67 CELLS/uL | ABSOLUTE SEGMENTED NEUTROPHIL [7]: 1446.17 CELLS/uL | BASOPHIL [7]: 0% | EOSINOPHIL [7]: 0.17% | ERYTHROCYTE COUNT [7]: 5.61 x10E6/uL | HEMATOCRIT [7]: 35.02% | HEMOGLOBIN [7]: 13.82 G/DL | LEUKOCYTE COUNT [7]: 13.58 x10E3/uL | LYMPHOCYTE [7]: 87.67% | MEAN CORPUSCULAR HEMOGLOBIN [7]: 24.68 pg | MONOCYTE [7]: 2% | NEUTROPHIL [7]: 10.17% | NUCLEATED RED BLOOD CELLS [7]: 0 /100WBC | PLATELET COUNT [7]: 1178.17 x10E3/uL | ALANINE AMINOTRANSFERASE [8]: 52.83 u/L | ALKALINE PHOSPHATASE [8]: 370 u/L | ASPARTATE AMINOTRANSFERASE [8]: 100.5 u/L | BLOOD UREA NITROGEN [8]: 15.17 mg/dL | CARBON DIOXIDE [8]: 28.83 mmol/L | CHOLESTEROL [8]: 69.5 mg/dL | CREATINE PHOSPHOKINASE [8]: 488.67 u/L | CREATININE [8]: 0.23 mg/dL | GLUCOSE [8]: 165 mg/dL | LACTATE DEHYDROGENASE [8]: 502.17 u/L | LIPASE [8]: 11 u/L | PHOSPHORUS [8]: 11.7 mg/dL | POTASSIUM [8]: 5.85 MEQ/L | TOTAL BILIRUBIN [8]: 0.18 mg/dL
